Experimental findings from US10513723B2 (AMGEN INC., priority 2014, dated 2019) are described below.

Experiment [1] relates to Cell line H (CHO cells expressing recombinant antibody). Description: Small scale mock perfusion, % high mannose (HILIC glycan map) of the expressed recombinant glycoprotein. The class given is cell-based, Chinese hamster. On the procedure: Cell lines H was used in this study. Cells were maintained in 3 L Erlenmeyer shake flasks (Corning Life Sciences, Lowell, Mass.) with 1 L working volume and cultivated under standard humidified condition at 36° C., 5% CO2, and shaken at 70 rpm in an automatic CO2 incubator (Thermo Fisher Scientific, Waltham, Mass.). Cells were sub-cultured in a selective growth media containing a 500 nM concentration of methotrexate (MTX) every four days, and subsequently transferred, inoculated and cultured in a growth media for four days before being seeded in a 24 wells plate for the experiments described below. […] Different N-glycan species of antibodies were analyzed by hydrophilic-interaction liquid chromatography (HILIC). The purified antibodies were digested by N-glycosidase F (New England BioLabs, Ipswich, Mass.) at 37° C. for 2 hours to release the glycans. The released glycans were labeled with 2-aminobenzoic acid and cleaned up using GlycoClean S cartridges (Prozyme, […], Calif.). Purified glycans were then desalted and reconstituted in water for assay. HILIC chromatography was performed with a 100 mm×2.1 mm i.d BEH Glycan column using UPLC (Waters Corporation, Milford, Mass.) and the eluted glycans were detected, identified, and qualified by a fluorescence detector based on different elution times of different glycans.

Experiment [2] relates to Cell line I (expresses an IgG2 antibody). Nature of the experiment: Fed-batch 2 L bioreactor culture, % high mannose by peptide mapping glycan profiling. The class given is cell-based. The note with it: single supplement of 0.1 g/L L-ornithine monohydrochloride on day 0 vs ornithine-free control; samples days 6, 8 and 12; FIG. 8.
Description: Glycan profiling was performed by peptide mapping. […] Specifically, about 50-70 μg of each antibody was denatured and reduced with 7.0 M guanidine.HCl, 6 mM dithiothreitol (DTT) in 0.2 M tris buffer (pH 7.5) at 37° C. for 30 minutes. Each denatured/reduced sample was alkylated with 14 mM iodoacetic acid at 25° C. for 25 minutes, followed by quenching the reaction by adding 8 mM DTT. […] The buffer-exchanged sample was incubated at 37° C. with 3.5 μg trypsin for 60 minutes. Digestion was quenched by adding 2.2 μL of 10% acetic acid. About 12-17 μg of digested antibody was injected for analysis.
The digested antibody was analyzed using an Agilent 1260 HPLC system directly connected to a Thermo Scientific LTQ-Orbitrap Elite mass spectrometer (Thermo Fisher Scientific Inc., Rockford, Ill.). Proteolytic peptides were separated on a Waters BEH 300 C18 column (Waters Corporation, Milford, Mass.) 2.1×150 mm, 1.7μ particle at 40° C. with a flow rate of 0.2 mL/min. Mobile phase A was 0.02% TFA in water and mobile phase B was 0.018% TFA in acetonitrile. Peptides were eluted with a gradient of 0.5-40% B in 90 minutes, followed by column washing and re-equilibration. Mass spectrometer was set up for a full MS scan in the orbitrap with 120,000 resolution followed by five data-dependent CID MS/MS scans in the linear trap with dynamic exclusion.
Experiment [3] deals with Cell line H (CHO cells expressing recombinant antibody). The note with it: spermine tetrahydrochloride 0, 7, 17, 35 and 100 μM; day 5 samples; FIG. 6.
Description: Samples were collected on day 5 of the mock perfusion assay. The 35 μM sample served as a control.
An arginine-free formulation of a perfusion media was used for small scale mock perfusion Experiment #3 (arginine concentration studies) according to the experimental design. In small scale mock perfusion Experiment #4 all arginase inhibitors were added to a perfusion media.
Briefly, the CHO cells were seeded in the plate at the targeted density ranging from 10-20×10^6 cells/mL with 3 mL working volume for each well. The cells were cultivated at 36° C., 5% CO2, 85% relative humidity and shaken at 225 rpm in a 50-mm orbital diameter Kuhner incubator (Kuhner AG, Basel, Switzerland) for 3 or 4 days. Every 24 hours, the cells were centrifuged at 200×g for 5 minutes (Beckman Coulter, Brea, Calif.) to collect the spent media and each well was then replenished with 3 mL of fresh media. The collected spent media were analyzed for titer, key metabolites and % high mannose (% HMN) (when necessary). Cells were then harvested and cell counts and viability were measured.
Five different concentrations of spermine were tested in this study. […] The perfusion medium containing 35 μM spermine acted as a control.
Experiment [4] shares this test system. The following applies: reduction/depletion of spermine in perfusion medium (0-100 μM).
Setting [5] is: first series: four arginase inhibitors at 1, 10 and 20 μM vs inhibitor-free control, FIG. 10.
The mark [6] stands for this setting: second series: BEC 0, 10 μM, 0.5 mM, DL-α 0, 10 μM, 1.0 mM, 2.0 mM in perfusion medium, FIG. 11.

Consider `Cl.NCCC[C@](N)(C(=O)O)C(F)F` (racemic) [DL-α, DL-α, Diflouromethylornithine Hydrochloride], for which the “% HM (high mannose glycoform content)” value was “most effective in decreasing % HM” in experiment [1] (setting [5]) and “% HM was decreased as both inhibitor concentrations increased” in experiment [1] (setting [6]).
Take `Cl.N=C(N)NCCC[C@H](N)C(=O)O` [arginine, arginine monohydrochloride]: in experiment [1] (arginine 3.686, 1.843 (control), 1.38, 0.92 and 0.46 g/L in perfusion medium, FIG. 9), the “% HM (high mannose glycoform content)” value is “as the arginine concentration is increased the % HM increased”.
Consider `Cl.NCCC[C@H](N)C(=O)O` [ornithine, L-ornithine monohydrochloride], for which the “% HMN (high mannose glycoform content)” value in experiment [2] is “as the ornithine concentration is increased the % HMN increased”.
For `Cl.Cl.Cl.Cl.NCCCNCCCCNCCCN` [spermine, spermine tetrahydrochloride], the “% HMN (high mannose glycoform content)” value in experiment [1] (spermine tetrahydrochloride 0, 7, 17, 35 (control) and 100 μM in perfusion medium, day 5 samples, FIG. 5) is on record as “as the spermine concentration was reduced, the % HMN decreased”. Moreover, the “amount of ornithine (extracellular)” value in experiment [3] is listed as “the amount of ornithine decreased with a decrease in spermine concentration”. In experiment [4], the Titer result is “not affected”.
Take S-(2-boronoethyl)-1-cysteine [BEC]: the “% HM (high mannose glycoform content)” value in experiment [1] (setting [5]) is “most effective in decreasing % HM”; in experiment [1] (setting [6]), “% HM was decreased as both inhibitor concentrations increased”.
